Peptide text beside a SMILES is read from it.
Each compound was assayed on H-460 human lung cancer cells. Details: not given.
Format: cell-based
CCCCC[C@@H]1OC(=O)[C@H](C(C)C)NC(=O)[C@H](C)N(C)C(=O)[C@@H]2CCCN2C(=O)[C@H](Cc2ccccc2)OC(=O)[C@H](C(C)C)N(C)C(=O)[C@H](C(C)C)NC(=O)C1(C)C [viequeamide D] (HELM PEPTIDE1{V.[meV].[O=C([C@H](Cc1ccccc1)O[*:1])[*:2]].P.[meA].V}|CHEM1{[CCCCC[C@H](O[*:2])C(C)(C)C(=O)[*:1]]}$PEPTIDE1,CHEM1,1:R1-1:R1|PEPTIDE1,CHEM1,6:R2-1:R2$$$V2.0) was tested, and the H-460 cytotoxicity was “no appreciable H-460 cytotoxicity”. For viequeamide H, the H-460 cytotoxicity was “no appreciable H-460 cytotoxicity”. For C=CCCC[C@@H]1OC(=O)[C@H](C(C)C)NC(=O)[C@H](C)N(C)C(=O)[C@@H]2CCCN2C(=O)[C@H](Cc2ccccc2)OC(=O)[C@H](C(C)C)N(C)C(=O)[C@H](C(C)C)NC(=O)C1(C)C [viequeamide C] (HELM PEPTIDE1{V.[meV].[O=C([C@H](Cc1ccccc1)O[*:1])[*:2]].P.[meA].V}|CHEM1{[C=CCCC[C@H](O[*:2])C(C)(C)C(=O)[*:1]]}$PEPTIDE1,CHEM1,1:R1-1:R1|PEPTIDE1,CHEM1,6:R2-1:R2$$$V2.0), the H-460 cytotoxicity was “no appreciable H-460 cytotoxicity”. viequeamide G was tested, and the H-460 cytotoxicity was “no appreciable H-460 cytotoxicity”. viequeamide X was tested, and the H-460 cytotoxicity was “no appreciable H-460 cytotoxicity”. With C#CCCC[C@@H]1OC(=O)[C@H](C(C)C)NC(=O)[C@H](C)N(C)C(=O)[C@@H]2CCCN2C(=O)[C@H](Cc2ccccc2)OC(=O)[C@H](C(C)C)N(C)C(=O)[C@H](C(C)C)NC(=O)C1(C)C [viequeamide B] (HELM PEPTIDE1{V.[meV].[O=C([C@H](Cc1ccccc1)O[*:1])[*:2]].P.[meA].V}|CHEM1{[C#CCCC[C@H](O[*:2])C(C)(C)C(=O)[*:1]]}$PEPTIDE1,CHEM1,1:R1-1:R1|PEPTIDE1,CHEM1,6:R2-1:R2$$$V2.0) the H-460 cytotoxicity was “no appreciable H-460 cytotoxicity”.

Same assay, conditions: H-460 human lung cancer cells
viequeamide A3 gave an IC50 of 1980 nM. viequeamide A2 was tested, and the IC50 was 620 nM.

Source: patent publication US20190265319A1, “SYSTEM AND METHOD FOR SMALL MOLECULE ACCURATE RECOGNITION TECHNOLOGY ("SMART")” (THE REGENTS OF THE UNIVERSITY OF CALIFORNIA, priority 2016, published 2019)
